Eight molecules from PubChem BioAssay (NCI) can be followed below.

Test systems include UO-31 renal; CCRF-CEM leukemia; RPMI-8226 leukemia; ACHN renal; RXF 393 renal; OVCAR-8 ovarian; COLO 205 colon; T-47D breast; SK-MEL-5 melanoma; MDA-N; NCI-H23 lung; SN12C renal; NCI/ADR-RES ovarian; SK-MEL-28 melanoma; DU-145 prostate; SR leukemia; IGROV1 ovarian; MALME-3M melanoma.
What all share (assay): NCI-60 cell line screen, 48 h

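Where inhibition never reached the appropriate level, the endpoint shown equals the highest concentration tested. Otherwise, values were interpolated linearly from a five-concentration, 48-hour dose response in 96-well plates. TGI denotes the concentration required for complete inhibition of growth.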

For the molecule `NC(=O)C(=CNC(=S)Nc1cccc(C(F)(F)F)c1)C(N)=O`, the TGI in the test on UO-31 renal, in the test with CCRF-CEM leukemia, in the test on RPMI-8226 leukemia, in the test on ACHN renal, with RXF 393 renal and in the test with OVCAR-8 ovarian was over 100 µM throughout. Besides, the TGI with COLO 205 colon, in the test with T-47D breast, in the test with SK-MEL-5 melanoma, in the test with MDA-N, in the test with NCI-H23 lung and in the test on SN12C renal was over 100 µM each time. The TGI in the test on NCI/ADR-RES ovarian, in the test on SK-MEL-28 melanoma, in the test on DU-145 prostate and in the test with SR leukemia was over 100 µM in each case.

Regarding `CCCNC(=O)N(C)C(=O)N1N=C(c2ccccc2)C1c1ccccc1` (stereo unspecified), the TGI with IGROV1 ovarian is over 100 µM; in the test on UO-31 renal, over 100 µM; in the test with CCRF-CEM leukemia it was 75.8 µM; with RPMI-8226 leukemia, over 100 µM; with ACHN renal, over 100 µM; in the test on RXF 393 renal, over 100 µM. Moreover, the TGI with OVCAR-8 ovarian, in the test with COLO 205 colon, in the test with T-47D breast, with MALME-3M melanoma, in the test on SK-MEL-5 melanoma and in the test on MDA-N was over 100 µM throughout. The TGI in the test with NCI-H23 lung, in the test on SN12C renal, with NCI/ADR-RES ovarian, in the test on SK-MEL-28 melanoma and in the test on DU-145 prostate was over 100 µM in each case.

Take `Cc1ccc(N=C2C(c3ccccc3)=C(SC3=C(c4ccccc4)C(=Nc4ccc(C)cc4)c4ccccc43)c3ccccc32)cc1`: the TGI in the test on IGROV1 ovarian is 45.5 µM; in the test on UO-31 renal, 33.3 µM; in the test with CCRF-CEM leukemia, over 100 µM; with RPMI-8226 leukemia, over 100 µM; with ACHN renal it was 18.3 µM; with RXF 393 renal, 27.9 µM. Moreover, the TGI with OVCAR-8 ovarian was 24.7 µM; in the test with COLO 205 colon it was over 100 µM; with T-47D breast it was over 100 µM; with SK-MEL-5 melanoma, over 100 µM; in the test on MDA-N it was over 100 µM; with NCI-H23 lung it was 41.6 µM. The TGI with SN12C renal was 77.1 µM; in the test with NCI/ADR-RES ovarian, over 100 µM; with SK-MEL-28 melanoma, over 100 µM; in the test on DU-145 prostate it was over 100 µM; in the test on SR leukemia, over 100 µM.

Turning to `S=C(N1CCN(c2ccccc2)CC1)N1CCN(c2ccccc2)CC1`, the TGI was over 100 µM in the test on IGROV1 ovarian; over 100 µM in the test on UO-31 renal; 68.7 µM in the test with CCRF-CEM leukemia; over 100 µM in the test on RPMI-8226 leukemia; over 100 µM in the test on ACHN renal; over 100 µM with RXF 393 renal. Moreover, the TGI in the test on OVCAR-8 ovarian, in the test with COLO 205 colon, in the test with T-47D breast, in the test with MALME-3M melanoma, in the test with SK-MEL-5 melanoma and with MDA-N was over 100 µM in each case. The TGI in the test with NCI-H23 lung, in the test on SN12C renal, with NCI/ADR-RES ovarian, in the test on SK-MEL-28 melanoma and with DU-145 prostate was over 100 µM in each case.

As to `CCCCCCCCOC(=O)c1cc([N+](=O)[O-])c(Sc2ncnc3nc[nH]c23)c([N+](=O)[O-])c1`, the TGI with IGROV1 ovarian is 16 µM; in the test with UO-31 renal it was 19.9 µM; in the test with CCRF-CEM leukemia, 2.68 µM; with RPMI-8226 leukemia it was 8.54 µM; with ACHN renal it was 10.2 µM; in the test on RXF 393 renal, over 47.6 µM. Besides, the TGI in the test with OVCAR-8 ovarian was 10.1 µM; in the test on COLO 205 colon it was 3.68 µM; in the test with T-47D breast it was 3.31 µM; with MALME-3M melanoma, 19.9 µM; with SK-MEL-5 melanoma it was 18.4 µM; in the test on MDA-N, 22.5 µM. In addition, the TGI in the test with NCI-H23 lung came out at 11.7 µM; in the test on SN12C renal, 7.34 µM; in the test with NCI/ADR-RES ovarian, 25.7 µM; with SK-MEL-28 melanoma, 42.8 µM; in the test with DU-145 prostate it was 18.6 µM.

For `Cc1cc2nc(N3C(=O)/C(=C/c4ccc(N(C)C)cc4)N=C3c3ccccc3)sc2cc1C`, the TGI is over 100 µM in the test on IGROV1 ovarian; 87.4 µM with UO-31 renal; 34 µM in the test on CCRF-CEM leukemia; over 100 µM in the test with RPMI-8226 leukemia; 62.4 µM in the test on ACHN renal; 57.9 µM in the test with RXF 393 renal. Also, the TGI in the test with OVCAR-8 ovarian is over 100 µM; in the test with COLO 205 colon, 40.7 µM; in the test with T-47D breast, over 100 µM; in the test with SK-MEL-5 melanoma, 44.4 µM; in the test on MDA-N, 33.8 µM; with SN12C renal, 57.8 µM. Moreover, the TGI in the test on NCI/ADR-RES ovarian is over 100 µM; in the test with SK-MEL-28 melanoma, over 100 µM; with DU-145 prostate, over 100 µM; with SR leukemia it was 41.3 µM.

As for `O=C1NC(=S)NC(=O)C1=C/C=C/c1ccc([N+](=O)[O-])cc1`, the TGI with IGROV1 ovarian is 28.2 µM; in the test with UO-31 renal it was 33.5 µM; in the test with RPMI-8226 leukemia, over 100 µM; in the test with ACHN renal, 39 µM; in the test with RXF 393 renal, 26.8 µM; in the test with OVCAR-8 ovarian it was 47.6 µM. For the same molecule, the TGI is 33.6 µM in the test on COLO 205 colon; 71.4 µM in the test with T-47D breast; 80.8 µM in the test on MALME-3M melanoma; 42.5 µM in the test on SK-MEL-5 melanoma; 27.7 µM in the test on MDA-N; 29.6 µM in the test on NCI-H23 lung. Also, the TGI came to 34.7 µM in the test on SN12C renal, 46.8 µM with NCI/ADR-RES ovarian, 10.4 µM with SK-MEL-28 melanoma and 32.7 µM with DU-145 prostate.

Turning to `O=Nc1c(O)cc(Nc2cccnc2)c2ccccc12`, the TGI is 49.9 µM with IGROV1 ovarian; over 100 µM in the test on UO-31 renal; 26.2 µM in the test on CCRF-CEM leukemia; 85 µM with RPMI-8226 leukemia; over 100 µM in the test with ACHN renal; over 100 µM with RXF 393 renal. Moreover, the TGI with OVCAR-8 ovarian was over 100 µM; with COLO 205 colon, 42.5 µM; in the test on T-47D breast, over 100 µM; in the test on SK-MEL-5 melanoma it was 11.6 µM; with MDA-N, 76.6 µM; in the test with NCI-H23 lung, 76 µM. In addition, the TGI with SN12C renal is over 100 µM; in the test with NCI/ADR-RES ovarian, 65.1 µM; in the test with DU-145 prostate, over 100 µM.
